According to the NIST ThermoML archive (doi:10.1016/j.jct.2012.06.028):
Numbers after ± are expanded uncertainties.

Legend:
[1] = 298.15 K; 101.33 kPa; Liquid; Vibrating tube method
[2] = refractive index (Na D-line) (dimensionless); conditions: 298.15 K; 101.33 kPa; Liquid; Standard Abbe refractometry

| Compound | mass density [1] | refractive index [2] |
| --- | --- | --- |
| CCCC[n+]1cccc(C)c1.O=S(=O)([N-]S(=O)(=O)C(F)(F)F)C(F)(F)F | 1414.76 ± 0.6 kg/m3 | 1.44595 ± 0.0007 |
| CCCC[n+]1ccn(C)c1.O=S(=O)([N-]S(=O)(=O)C(F)(F)F)C(F)(F)F | 1436.1 ± 0.62 kg/m3 | 1.42672 ± 0.0007 |
| CCn1cc[n+](C)c1.O=S(=O)([N-]S(=O)(=O)C(F)(F)F)C(F)(F)F | 1518.74 ± 0.7 kg/m3 | 1.42307 ± 0.0007 |
| CCCC[n+]1cccc(C)c1.O=S(=O)([O-])C(F)(F)F [1-butyl-3-methylpyridinium trifluoromethanesulfonate] | 1279.77 ± 0.47 kg/m3 | 1.46138 ± 0.0007 |
| CCO [ethanol] | 785.44 ± 0.13 kg/m3 | 1.35936 ± 0.00068 |
| CCCCCC [hexane] | 655.2 ± 0.26 kg/m3 | 1.37241 ± 0.0007 |
